Measurements from patent US20110294794A1, “TREATMENT OF PROTEINOPATHIES USING A FARNESYL TRANSFERASE INHIBITOR” (Link Medicine Corporation, priority 2008, published 2011).
“Also recorded” adds a separate entry of the source.

Legend:
aged non-transgenic rats = test: Morris water maze in aged non-transgenic rats; type: in vivo, rat; settings: aged rats (22 months old), 0.3 mg/kg and 0.9 mg/kg once every 24 hours
Source text: Morris water maze (MWM) analysis of cognitive performance: In APP/PS1 transgenic animals, swimming behavior in a Morris Water Maze was videotaped and analyzed (Ethovision, Noldus, Wageningen, Netherlands). For mice, a place navigation test was used to locate the hidden platform in five blocks of three trials over three consecutive days. Each trial consists of a forced swim test of maximum 120 seconds, followed by 60 seconds of rest. The time each mouse needed for location of the platform was measured. For rats, a cued learning phase was first conducted, consisting of 3 trials per day for 5 days, using a visible platform of varying location. Each trial consisted of a forced swim test of maximum 60 seconds, followed by 10 minutes of rest. The time and path length each rat needed to locate the platform was measured.
In order to rule out the possibility that the rapid observed improvement in cognition described above arose from an alternative, transgene-independent mechanism, aged non-transgenic rats (22 months old) were treated with LNK-754-TS (0.3 mg/kg and 0.9 mg/kg, once every 24 hours) and their cognitive performance was measured by MWM and compared to that of younger rats (3 months old) of the same strain.

p62 mRNA = p62 mRNA in SH-SY5Y cells; type: cell-based, human; settings: 100 nM (FIG. 8e)
Protocol: Quantitative real-time PCR: Gene expression profiles were done by qPCR on series of known autophagy genes. RNA was extracted with Tri-reagent (Sigma), and cDNAs generated using iScript (Biorad). qPCR analysis was carried out in a 96 well plate using an iCycler (BioRad, Hercules, Calif.), and iQ SYBR Green Supermix (Biorad) according to the manufacturer's specifications.

LC3-II = LC3-II protein level (autophagic flux) in SH-SY5Y cells with or without bafilomycin A1; type: cell-based, human
Source text: Data are represented as mean+/−SEM with statistical significance by paired student's t-test (n=4, p<0.05).
The observed increase in LC3-positive autophagosomes could result, in principle, from either an increased flux through the autophagy pathway or decreased autophagosome degradation (Pankiv, S., et al. J Biol Chem 282, 24131-24145 (2007); Kamada, Y., et al. J Cell Biol 150, 1507-1513 (2000)). […] In order to ascertain an increase in autophagic flux, cells were co-treated with LNK-754-TS and an inhibitor of autophagosome-lysosome fusion, bafilomycin A1 (10 nM). Bafilomycin treatment alone caused a 100% increase in the amount of LC3-II, consistent with the fact that it inhibits autophagosome degradation (FIG. 8c).
The mechanism of autophagy stimulation by LNK-754-TS appears distinct from that of the drug rapamycin. Rapamycin is a well-characterized autophagy stimulator that acts through inhibition of mTOR, a kinase involved in nutrient signaling and regulation of cell growth and survival. […] To further contrast the mechanism of autophagy stimulation by LNK-754-TS to that of rapamycin, a collection of mRNA transcripts of autophagy proteins were measured (FIG. 8d). Selected mRNAs from untreated SH-SY5Y cells were compared to mRNAs from cells treated with LNK-754-TS (100 nM), tipifarnib (100 nM), or rapamycin (1 μM).

TAU441 transgenic mice = test: Porsolt forced swim task in TAU441 transgenic mice; type: in vivo, mouse
Source text: Tests relevant to depression-like behaviors in rodents are primarily stress-induced reductions in avoidance or escape, termed behavioral despair. One of the most widely used animal tests for depression is the Porsolt forced swim task (Porsolt et al., Arch. Int. Pharmacodyn. Ther. 229(2):327-36, 1977; Porsolt et al., Eur. J. Pharmacol. 47(4):379-91, 1978). This study was designed to evaluate the effects of treatment with LNK-754 on behavior of TAU441 transgenic mice. At start of the treatment, the animals were 5 months old. Untreated non-transgenic animals of the same age were tested and sacrificed serving as the baseline group. Mice received vehicle or LNK-754-TS at a dose of 0.09 mg per kg, 7 days a week for 90 days. In the last week of the treatment period and before sacrifice, mice were evaluated using the Porsolt forced swim task (FIG. 10B).

Ras = test: Soluble/cytoplasmic Ras level in frontal cortex of alpha-synuclein transgenic mice (immunoblot); type: in vivo, mouse; settings: 0.09 mg/kg or 9 mg/kg b.i.d., 3 months
Protocol: The level of inhibition of Ras in brain by LNK-754-TS, dosed at an efficacious dose for efficacy in animal models of proteinopathy-dependent neurodegeneration, was investigated. Alpha-synuclein transgenic mice were treated for 3 months b.i.d. with vehicle or LNK-754-TS at 0.09 mg/kg or 9 mg/kg. Cortical tissue was extracted and homogenized, followed by isolation of soluble/cytosolic proteins in detergent-free buffer (50 mM Tris-HCl pH 7.4, 140 mM NaCl, 2 mM EDTA, Protease inhibitor cocktail) by centrifugation. 15 micrograms of protein lysate was analyzed per lane of SDS-PAGE gel, and immunoblotted for Ras and actin (FIG. 6). Densitometry was used to quantify the Ras/actin ratio for each sample, and results were plotted (FIG. 7). […] This contrasts with what is observed in xenograft cancer models, where inhibition of Ras farnesylation by high dose FTIs is directly correlated with efficacy (FIG. 3 and Example 3).

APP/PS1 transgenic mice = test: Morris water maze in APP/PS1 transgenic mice; type: in vivo, mouse; settings: 0.9 mg/kg once every 24 hours
Protocol: Animals and treatments: Male and female human WT alpha-synuclein over-expressing transgenic mice^32 at 6 months of age were given vehicle (10% beta-cyclodextrin) or LNK-754-TS (0.09, 0.9 and 9 mg/kg) per oral gavage twice daily for 3 months or animals at 7 months of age were given vehicle (2.5% beta-cyclodextrin) or LNK-754-TS (2 mg/kg) once every three days for 3 months. Male and female TAU transgenic mice expressing TAU441 bearing the missense mutations V337M^50 and R406W under the control of the murine Thy-1 promoter with a CB6xC57BL/6 background were 5 months old at the time when the oral treatment for three months with LNK-754-TS (0.9 and 0.09 mg/kg) as well as vehicle (2.5% beta-cyclodextrin) was started. Female human APP/PS1 (APP (London V7171)/PS1(A246E)) over-expressing transgenic mice were treated with LNK-754-TS (0.9 mg/kg) or vehicle (2.5% beta-cyclodextrin) for 2 months or 12 days.
Morris water maze (MWM) analysis of cognitive performance: In APP/PS1 transgenic animals, swimming behavior in a Morris Water Maze was videotaped and analyzed (Ethovision, Noldus, Wageningen, Netherlands). For mice, a place navigation test was used to locate the hidden platform in five blocks of three trials over three consecutive days. […] The time each mouse needed for location of the platform was measured. […] The time and path length each rat needed to locate the platform was measured. […]

[1] = 0.09 mg/kg once every 24 hr, 90 days

SMILES: C#Cc1cccc(-c2cc(=O)n(C)c3ccc([C@](O)(c4ccc(Cl)cc4)c4cncn4C)cc23)c1 [LNK-754-TS, (R)-6-[(4-chlorophenyl)-hydroxyl-(1-methyl-1-H-imidazol-5-yl)-methyl]-4-(3-ethynylphenyl)-1-methyl-2-(1H)-quinonlinone (2S,3S)-dihydroxybutanedioate]
- cognitive performance (place learning curves, probe tests) (aged non-transgenic rats): no significant cognitive improvement
- p62 mRNA (p62 mRNA): upregulation; also recorded: increased
- LC3-II protein level (LC3-II; 100 nM in the presence of Bafilomycin A1 (10 nM)): increased
- accumulation of LC3-I or LC3-II (LC3-II; treatment alone, without bafilomycin): did not cause accumulation
- depressed phenotype (TAU441 transgenic mice; 0.09 mg/kg once every 24 hours): significantly ameliorated
- floating behavior vs. vehicle (TAU441 transgenic mice; [1]): significantly less; also recorded: decreasing; also recorded: decreased
- forced swim behavior compared with non-transgenic mice (TAU441 transgenic mice; [1]): behaved similar to non-transgenic mice; also recorded: behaved similarly to non-tg mice; also recorded: levels equivalent to that seen in non-transgenic mice
- struggling behavior vs. vehicle (TAU441 transgenic mice; [1]): higher percentage; also recorded: increasing; also recorded: significantly increased
- effect on Ras farnesylation in brain (Ras): no significant effect
- soluble Ras/actin level in cortex vs. vehicle (Ras): No significant differences
- cognitive performance in Morris water maze vs. vehicle (APP/PS1 transgenic mice; 12 days): significant cognitive improvement
- cognitive performance in Morris water maze vs. vehicle (APP/PS1 transgenic mice; two months): performed significantly better; also recorded: significant cognitive improvement
